The numbers were not newly measured in patent publication US20090252806A1, “NANOPARTICULATE TACROLIMUS FORMULATIONS” (Elan Pharma International Ltd., priority 2004, published 2009), which cites them from elsewhere.

Structures are written as SMILES. Where two headings read alike, the source gives them in different places.

The conditions of data set [1]: oral.
For data set [2] the following is noted: U.S. study; average (range).
The conditions of data set [3]: for reduction of mean AUC relative to the fasted condition / reduction of mean Cmax relative to the fasted condition: healthy volunteers (N=16).
For data set [4] the following is noted: 18 fasted healthy volunteers; single oral dose of 3 mg, 7 mg, and 10 mg.
Where [5] appears, read: 15 minutes after a high fat (400 kcal, 34% fat) breakfast, 11 liver transplant patients.
[6] abbreviates: administered 1.5 hours following the meal.
Setting [7] is: given immediately following the meal.

Consider `C=CC[C@@H]1/C=C(\C)C[C@H](C)C[C@H](OC)[C@H]2O[C@@](O)(C(=O)C(=O)N3CCCC[C@H]3C(=O)O[C@H](/C(C)=C/[C@@H]3CC[C@@H](O)[C@H](OC)C3)[C@H](C)[C@@H](O)CC1=O)[C@H](C)C[C@@H]2OC` [tacrolimus, Tacrolimus], for which the absolute bioavailability in data set [1] (adult kidney transplant patients (N=26)) is 17±10%; in data set [1] (adult liver transplant patients (N=17)) it was 22±6%. The “ratio of whole blood concentration to plasma concentration” value in data set [2] is on record as 35 (range 12 to 67). The solubility entry is, setting by setting: (in chloroform) “very soluble”; (in ethanol) “freely soluble”; (in methanol) “very soluble”; (in water) “practically insoluble”. In data set [3] (setting [5]), the “decreased AUC as compared to a fasted state” value is listed as 27±18%. In addition, in data set [3] (setting [5]), the “decreased Cmax as compared to a fasted state” value is 50±19%. Also, the “reduction of mean AUC relative to the fasted condition” value in data set [3] (setting [6]) and in data set [3] (setting [7]) was 39% throughout. Besides, the “reduction of mean Cmax relative to the fasted condition” value in data set [3] (setting [6]) is given as 63%; in data set [3] (setting [7]), 71%. The “lengthening of Tmax” value in data set [3] (high-fat meal (848 kcal, 46% fat), 15 healthy volunteers) is given as 5 fold. Also, the “increase of Cmax and AUC with dose” value in data set [4] was “dose-proportional”.
